Test results reported in publication PMC9281089 (Journal of Translational Medicine, 2022).
Where “and” joins values, the source holds several entries; their conditions need not be identical. Identical values can stand only once. Counter-ions that a name gives are not always drawn.

Legend:
[1] = molecular target: SARS-CoV-2 S-protein RBD / ACE2 interaction (UniProt P0DTC2+Q9BYF1); test: biochemical; parameters: species or system SARS-CoV-2 / human; conditions: EC50 (HTRF), inhibition of binding of S-RBD to ACE2

For N=C(N)c1ccc2cc(OC(=O)c3ccc(N=C(N)N)cc3)ccc2c1 [Nafamostat mesylate, reference compound], the EC50 [1] was 11.3 µM.
In the case of O=C1c2ccccc2C(=O)c2ccccc21 [TS-1276, anthraquinone], the EC50 [1] is reported as 55.9 µM and 16.4 µM.
With O=C(OC[C@H]1O[C@@H](OC(=O)c2cc(O)c(O)c(OC(=O)c3cc(O)c(O)c(O)c3)c2)[C@H](OC(=O)c2cc(O)c(O)c(OC(=O)c3cc(O)c(O)c(O)c3)c2)[C@@H](OC(=O)c2cc(O)c(O)c(OC(=O)c3cc(O)c(O)c(O)c3)c2)[C@@H]1OC(=O)c1cc(O)c(O)c(OC(=O)c2cc(O)c(O)c(O)c2)c1)c1cc(O)c(O)c(OC(=O)c2cc(O)c(O)c(O)c2)c1 [tannic acid, reference compound] the cytotoxicity to cells (cells; at a high concentration (> 30 µM)) was “strong cytotoxicity” and the “cytotoxicity at effective concentration” value (cells; when the effective concentration is applied) was “higher cytotoxicity that leads to cell death”.
COc1ccc2c3ccnc4ccc(=O)n(c2c1)c43 [TS-984, 9-Methoxycanthin-6-one] was tested, and the EC50 [1] was 36.2 µM and the “cytotoxicity (comparative)” value (cells; compared with tannic acid and nafamostat mesilate) was “lower cytotoxicity”.
